Source: ChEMBL document CHEMBL1201862, “PubChem BioAssay data set” (2004)
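Tested at 5 concentrations; 48 h exposure; 96-well plates; endpoints linearly interpolated, else capped at highest concentration. The concentration for 50% growth inhibition is given as GI50.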 Activity calls are given as the source filed them. Rule as the data show it: active = GI50 up to about 1.1 µM and inactive = higher.

Legend:
Experiment in all cases: growth of human tumour cells (NCI), 48 h
U-251 = test system: U-251
UACC-257 = test system: UACC-257
EKVX = test system: EKVX
RPMI-8226 = test system: RPMI-8226
OVCAR-5 = test system: OVCAR-5
RXF 393 = test system: RXF 393
TK-10 = test system: TK-10
LOX IMVI = test system: LOX IMVI
IGROV-1 = test system: IGROV-1
M14 = test system: M14
SK-MEL-2 = test system: SK-MEL-2
HL-60 = test system: HL-60
OVCAR-3 = test system: OVCAR-3
HT-29 = test system: HT-29
HOP-62 = test system: HOP-62
SK-OV-3 = test system: SK-OV-3
UO-31 = test system: UO-31
NCI-H226 = test system: NCI-H226
K562 = test system: K562

Measured: GI50

O=c1c2cc3c(cc2c2cccc4c2n1CCC4)OCO3
inactive: U-251 23.1 µM | UACC-257 33.1 µM | EKVX 33 µM | RPMI-8226 30.2 µM | OVCAR-5 58.7 µM | RXF 393 28.4 µM | TK-10 27.1 µM | LOX IMVI 42.9 µM | IGROV-1 36.1 µM | M14 46.9 µM | SK-MEL-2 > 100 µM | HL-60 53.8 µM | OVCAR-3 61.2 µM | HT-29 51.1 µM | HOP-62 56.8 µM | SK-OV-3 55.3 µM | UO-31 22.4 µM | NCI-H226 > 100 µM | K562 45.8 µM

N#CC(C(=N/NC(N)=S)/C(=N\NC(N)=S)C(C#N)c1ccccc1)c1ccccc1 (centres undefined)
inactive: U-251 > 10 µM | UACC-257 > 10 µM | EKVX > 10 µM | RPMI-8226 > 10 µM | OVCAR-5 > 10 µM | RXF 393 > 10 µM | TK-10 > 10 µM | LOX IMVI > 10 µM | M14 > 10 µM | SK-MEL-2 > 10 µM | HL-60 > 10 µM | OVCAR-3 > 10 µM | HT-29 > 10 µM | HOP-62 > 10 µM | SK-OV-3 > 10 µM | UO-31 > 10 µM | NCI-H226 > 10 µM | K562 > 10 µM

O=C1c2ccccc2N2OC3(N4CCCC4)CCCCC3C12c1ccccc1 (centres undefined)
inactive: U-251 28.1 µM | UACC-257 19.3 µM | EKVX 69.8 µM | RPMI-8226 > 100 µM | RXF 393 17.5 µM | IGROV-1 42 µM | M14 17.6 µM | HL-60 19.1 µM | HT-29 21.8 µM | HOP-62 > 100 µM | SK-OV-3 > 100 µM | UO-31 39.7 µM | NCI-H226 37.3 µM | K562 19.5 µM

CN1CCc2ccccc2C(C(=O)c2ccc3c(c2)OCO3)C1=O (centres undefined)
inactive: U-251 > 100 µM | UACC-257 90.2 µM | RPMI-8226 > 100 µM | RXF 393 > 100 µM | TK-10 > 100 µM | LOX IMVI > 100 µM | IGROV-1 > 100 µM | M14 > 100 µM | SK-MEL-2 > 100 µM | HL-60 > 100 µM | OVCAR-3 > 100 µM | HT-29 > 100 µM | HOP-62 > 100 µM | SK-OV-3 > 100 µM | UO-31 94 µM | NCI-H226 99.5 µM | K562 > 100 µM

CCOC(=O)C(CCCNC(=O)OC(C)(C)C)N(Cc1ccc(OC)cc1OC)C(=O)CC(=O)CP(=O)(OCC)OCC (centres undefined)
inactive: U-251 > 100 µM | UACC-257 > 100 µM | EKVX > 100 µM | RPMI-8226 > 100 µM | OVCAR-5 > 100 µM | RXF 393 > 100 µM | TK-10 > 100 µM | LOX IMVI > 100 µM | IGROV-1 > 100 µM | M14 > 100 µM | SK-MEL-2 > 100 µM | HL-60 97.7 µM | OVCAR-3 > 100 µM | HT-29 > 100 µM | HOP-62 > 100 µM | SK-OV-3 > 100 µM | UO-31 > 100 µM | NCI-H226 > 100 µM | K562 > 100 µM

O=C(O)C1CCCCN1C(=O)Cc1c[nH]c2ccccc12 (centres undefined)
inactive: U-251 > 100 µM | UACC-257 > 100 µM | EKVX > 100 µM | RPMI-8226 > 100 µM | OVCAR-5 > 100 µM | RXF 393 > 100 µM | TK-10 > 100 µM | LOX IMVI > 100 µM | IGROV-1 > 100 µM | M14 > 100 µM | SK-MEL-2 > 100 µM | HL-60 > 100 µM | OVCAR-3 > 100 µM | HT-29 > 100 µM | HOP-62 > 100 µM | SK-OV-3 > 100 µM | NCI-H226 > 100 µM | K562 > 100 µM

COc1ccc(S(=O)(=O)N/N=C/CN2C(=O)c3ccccc3C2=O)cc1
inactive: U-251 > 100 µM | UACC-257 > 100 µM | EKVX > 100 µM | RPMI-8226 > 100 µM | RXF 393 > 100 µM | TK-10 > 10 µM | LOX IMVI > 100 µM | IGROV-1 > 100 µM | M14 > 100 µM | SK-MEL-2 > 100 µM | HL-60 > 100 µM | HT-29 > 100 µM | HOP-62 > 100 µM | UO-31 > 10 µM | NCI-H226 47 µM | K562 > 100 µM

O=C(CSc1nnc(Cc2ccccc2)o1)Nc1ccc(Cl)cc1[N+](=O)[O-]
inactive: U-251 19.5 µM | UACC-257 19.9 µM | EKVX 20.3 µM | RPMI-8226 17.9 µM | RXF 393 19.2 µM | TK-10 17.1 µM | LOX IMVI 13.1 µM | M14 16.5 µM | SK-MEL-2 15.9 µM | HL-60 24.7 µM | HT-29 22.3 µM | HOP-62 17.4 µM | SK-OV-3 34.5 µM | UO-31 18.4 µM | NCI-H226 21.2 µM | K562 25.6 µM

CC(=O)OCc1c(O)nc2c(c1O)-c1ccccc1CC2
inactive: U-251 > 350 µM | UACC-257 81.3 µM | EKVX 125 µM | RPMI-8226 38.5 µM | RXF 393 54.6 µM | TK-10 86.9 µM | LOX IMVI 61.4 µM | IGROV-1 164 µM | SK-MEL-2 > 35 µM | HL-60 84.7 µM | OVCAR-3 51.5 µM | HT-29 113 µM | HOP-62 131 µM | SK-OV-3 194 µM | NCI-H226 > 350 µM | K562 109 µM

COc1cc2noc(-c3ccccc3)c2cc1OC
inactive: U-251 26.7 µM | UACC-257 > 100 µM | RPMI-8226 18.7 µM | OVCAR-5 29.2 µM | RXF 393 23.8 µM | TK-10 80.9 µM | LOX IMVI 40.6 µM | IGROV-1 > 100 µM | M14 55.6 µM | SK-MEL-2 75.9 µM | HL-60 40.1 µM | HT-29 36.6 µM | HOP-62 22.4 µM | SK-OV-3 63 µM | UO-31 34.8 µM | NCI-H226 > 100 µM | K562 50.6 µM

COCC1N=C(c2cc(OC)c(OC)c(OC)c2-c2cc3c(cc2C2OCCCO2)OCO3)O[C@H]1c1ccccc1 (some centres undefined)
inactive: U-251 > 100 µM | UACC-257 > 100 µM | EKVX > 100 µM | RPMI-8226 > 100 µM | OVCAR-5 > 100 µM | RXF 393 > 100 µM | TK-10 > 100 µM | LOX IMVI > 100 µM | IGROV-1 > 100 µM | M14 > 100 µM | SK-MEL-2 > 100 µM | HL-60 > 100 µM | OVCAR-3 > 100 µM | HT-29 > 100 µM | HOP-62 > 100 µM | SK-OV-3 > 100 µM | UO-31 > 100 µM | NCI-H226 > 100 µM | K562 > 100 µM
